Data as given in the NIST ThermoML archive (doi:10.1007/s10765-016-2150-1).
± gives the expanded uncertainty stated by the source.

Conditions: Liquid, Oscillating viscometer

O=[N+]([O-])[O-].[Li+] [lithium nitrate]
viscosity (544.9 K): 5.15 ± 0.32 mPa·s | viscosity (554.5 K): 4.457 ± 0.27 mPa·s | viscosity (571.7 K): 4.195 ± 0.26 mPa·s | viscosity (592.1 K): 3.854 ± 0.24 mPa·s | viscosity (595.9 K): 3.618 ± 0.22 mPa·s | viscosity (597 K): 3.72 ± 0.23 mPa·s | viscosity (601.3 K): 3.549 ± 0.22 mPa·s | viscosity (603.3 K): 3.373 ± 0.21 mPa·s | viscosity (619.2 K): 3.075 ± 0.19 mPa·s | viscosity (623.2 K): 3.024 ± 0.18 mPa·s | viscosity (627.2 K): 3.04 ± 0.19 mPa·s | viscosity (662.7 K): 2.448 ± 0.15 mPa·s | viscosity (688.8 K): 2.169 ± 0.14 mPa·s | viscosity (689.2 K): 2.094 ± 0.13 mPa·s
